From ChEMBL document CHEMBL5584244, “Discovery of novel pyrrolo[2,1-c][1,4]benzodiazepine-3,11-dione (PBD) derivatives as selective HDAC6 inhibitors for the efficient treatment of idiopathic pulmonary fibrosis (IPF) in vitro and in vivo” (Eur J Med Chem, 2024)
The source made the active and inactive calls. The calls are words filed in the database; no cut-off is given here.

Key:
[1] = biological target: T1, TGF-beta receptor type-1 (Homo sapiens) (UniProt P36897); experiment: Inhibition of TGF-beta1-induced TGFbetaR1 protein phosphorylation level in HELF cells incubated for 48 hrs by Western blot analysis; assay type: cell-based; conditions: dose 2.5-10 µM
T1 sequence (whole entry): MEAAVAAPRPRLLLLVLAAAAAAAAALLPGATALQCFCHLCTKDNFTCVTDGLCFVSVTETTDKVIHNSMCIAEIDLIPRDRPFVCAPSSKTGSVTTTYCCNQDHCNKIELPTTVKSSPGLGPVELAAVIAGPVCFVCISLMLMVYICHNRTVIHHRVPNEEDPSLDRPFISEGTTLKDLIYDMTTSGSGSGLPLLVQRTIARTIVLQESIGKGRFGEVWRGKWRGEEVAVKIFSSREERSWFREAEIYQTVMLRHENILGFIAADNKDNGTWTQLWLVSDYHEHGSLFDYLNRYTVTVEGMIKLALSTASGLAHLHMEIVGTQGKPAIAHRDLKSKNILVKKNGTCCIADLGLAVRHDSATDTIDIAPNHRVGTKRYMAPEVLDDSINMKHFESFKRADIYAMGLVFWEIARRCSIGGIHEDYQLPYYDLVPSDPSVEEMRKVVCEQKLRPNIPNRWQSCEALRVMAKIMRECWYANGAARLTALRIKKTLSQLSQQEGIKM

Mus musculus [2] = experiment: Anti-pulmonary fibrosis activity in bleomycin-induced C57BL/6 mouse model of pulmonary fibrosis assessed as inhibition of HDAC activity in lung at 50 to 100 mg/kg, ip for 3 weeks by fluorescence based microplate reader analysis; assay type: functional, organism-based; conditions: dose 50-100 mg/kg
[3] = biological target: Mothers against decapentaplegic homolog 2 (Homo sapiens) (UniProt Q15796); experiment: Inhibition of TGF-beta1-induced Smad2 protein phosphorylation level in HELF cells incubated for 48 hrs by Western blot analysis; assay type: cell-based; conditions: dose 2.5-10 µM
[4] = Intrinsic clearance in human liver at 100 uM incubated upto 60 mins by LC-MS/MS analysis; assay type: ADME, tissue-based; conditions: read-out: CLH
Mus musculus [5] = experiment: Anti-pulmonary fibrosis activity in bleomycin-induced C57BL/6 mouse model of pulmonary fibrosis assessed as decrease in collagen fiber deposition in lung at 50 to 100 mg/kg, ip for 3 weeks by Masson trichrome staining based microscopic analysis; assay type: functional, organism-based; conditions: dose 50-100 mg/kg
Mus musculus [6] = experiment: Anti-pulmonary fibrosis activity in bleomycin-induced C57BL/6 mouse model of pulmonary fibrosis assessed as increase in body weight at 50 to 100 mg/kg, ip for 3 weeks; assay type: functional, organism-based; conditions: dose 50-100 mg/kg
Mus musculus [7] = experiment: Anti-pulmonary fibrosis activity in bleomycin-induced C57BL/6 mouse model of pulmonary fibrosis assessed as decrease in disturbance of alveolar structure in lung at 50 to 100 mg/kg, ip for 3 weeks by H and E staining based fluorescence microscopic analysis; assay type: functional, organism-based; conditions: dose 50-100 mg/kg
[8] = Cytotoxicity against HELF cells assessed as reduction in viability at 1 to 300 uM after 48 hrs under without FBS condition by MTT assay; assay type: toxicity, cell-based; conditions: human, dose 1-300 µM
Mus musculus [9] = experiment: Anti-pulmonary fibrosis activity in bleomycin-induced C57BL/6 mouse model of pulmonary fibrosis assessed as recovering mental state at 50 to 100 mg/kg, ip for 3 weeks; assay type: functional, organism-based; conditions: dose 50-100 mg/kg
HELF = experiment: Antifibrotic activity against TGF-beta1-induced HELF cells assessed as reduction in viability after 48 hrs by MTT assay; assay type: functional, cell-based; conditions: Homo sapiens, dose 2.5-10 µM
[10] = Stability of compound in human liver microsomes assessed as remaining parent compound at 100 uM incubated after 60 mins by LC-MS/MS analysis; assay type: ADME, Microsome; conditions: read-out: Stability
[11] = Half life in human liver microsomes at 100 uM by LC-MS/MS analysis; assay type: ADME, Microsome
[12] = Half life in human plasma at 2 uM by LC-MS/MS analysis; assay type: ADME, cell-free
Mus musculus [13] = experiment: Anti-pulmonary fibrosis activity in bleomycin-induced C57BL/6 mouse model of pulmonary fibrosis assessed as decrease in thickening of the alveolar wall in lung at 50 to 100 mg/kg, ip for 3 weeks by Masson trichrome staining based microscopic analysis; assay type: functional, organism-based; conditions: dose 50-100 mg/kg
Mus musculus [14] = experiment: Anti-pulmonary fibrosis activity in bleomycin-induced ip dosed C57BL/6 mouse model of pulmonary fibrosis assessed as inhibition of Smad2 protein phosphorylation level in lung for 3 weeks by immunohistochemical analysis; assay type: functional, organism-based; conditions: dose 50-100 mg/kg
Mus musculus [15] = experiment: Anti-pulmonary fibrosis activity in bleomycin-induced C57BL/6 mouse model of pulmonary fibrosis assessed as decrease in inflammatory cell infiltration in lung at 50 to 100 mg/kg, ip for 3 weeks by H and E staining based fluorescence microscopic analysis; assay type: functional, organism-based; conditions: dose 50-100 mg/kg
Mus musculus [16] = experiment: Anti-pulmonary fibrosis activity in bleomycin-induced C57BL/6 mouse model of pulmonary fibrosis assessed as decrease in collagen level in lung at 50 to 100 mg/kg, ip for 3 weeks by Masson trichrome staining based microscopic analysis; assay type: functional, organism-based; conditions: dose 50-100 mg/kg
Histone deacetylase 11 = biological target: T2, Histone deacetylase 11 (Homo sapiens, UniProt Q96DB2); experiment: Inhibition of recombinant human full length HDAC11 using Boc-Lys (Tfa)-AMC as substrate incubated for 120 mins by fluorescence analysis
T2 sequence (Q96DB2 whole entry): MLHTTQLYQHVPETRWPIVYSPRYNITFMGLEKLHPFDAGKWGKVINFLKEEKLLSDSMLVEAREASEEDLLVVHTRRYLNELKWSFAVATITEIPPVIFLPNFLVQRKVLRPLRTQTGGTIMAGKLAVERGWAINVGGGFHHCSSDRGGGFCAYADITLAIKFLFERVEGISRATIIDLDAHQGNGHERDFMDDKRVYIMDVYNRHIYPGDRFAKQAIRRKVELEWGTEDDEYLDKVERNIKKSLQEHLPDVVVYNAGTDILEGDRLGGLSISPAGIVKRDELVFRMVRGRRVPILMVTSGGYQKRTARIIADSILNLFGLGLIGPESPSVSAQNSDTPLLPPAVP

Mus musculus [17] = experiment: Anti-pulmonary fibrosis activity in bleomycin-induced C57BL/6 mouse model of pulmonary fibrosis assessed as decrease in collapse of the alveolar cavity in lung at 50 to 100 mg/kg, ip for 3 weeks by Masson trichrome staining based microscopic analysis; assay type: functional, organism-based; conditions: dose 50-100 mg/kg
Histone deacetylase 2 = Histone deacetylase 2 (Homo sapiens, UniProt Q92769); experiment: Inhibition of recombinant human full length HDAC2 using Boc-Lys (Ac)-AMC as substrate incubated for 120 mins by fluorescence analysis
Mus musculus [18] = experiment: Anti-pulmonary fibrosis activity in bleomycin-induced C57BL/6 mouse model of pulmonary fibrosis assessed as decrease in fibrosis scars in lung at 50 to 100 mg/kg, ip for 3 weeks by H and E staining based fluorescence microscopic analysis; assay type: functional, organism-based; conditions: dose 50-100 mg/kg

Histone deacetylase 2, sequence (Q92769 whole entry): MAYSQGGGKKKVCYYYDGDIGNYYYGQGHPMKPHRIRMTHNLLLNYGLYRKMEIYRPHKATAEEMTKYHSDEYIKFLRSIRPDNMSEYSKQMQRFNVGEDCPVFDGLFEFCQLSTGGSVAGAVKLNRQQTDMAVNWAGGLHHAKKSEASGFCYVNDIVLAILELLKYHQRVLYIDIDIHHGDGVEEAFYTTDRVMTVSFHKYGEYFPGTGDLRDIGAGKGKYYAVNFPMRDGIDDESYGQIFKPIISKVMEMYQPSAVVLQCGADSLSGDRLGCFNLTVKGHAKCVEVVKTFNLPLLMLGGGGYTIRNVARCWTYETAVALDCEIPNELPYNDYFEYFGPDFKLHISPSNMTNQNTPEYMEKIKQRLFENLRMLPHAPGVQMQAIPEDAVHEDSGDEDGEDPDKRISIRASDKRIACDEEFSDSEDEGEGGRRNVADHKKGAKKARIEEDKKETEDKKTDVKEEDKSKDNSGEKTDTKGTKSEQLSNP
Mothers against decapentaplegic homolog 2 (Homo sapiens), sequence (Q15796 whole entry): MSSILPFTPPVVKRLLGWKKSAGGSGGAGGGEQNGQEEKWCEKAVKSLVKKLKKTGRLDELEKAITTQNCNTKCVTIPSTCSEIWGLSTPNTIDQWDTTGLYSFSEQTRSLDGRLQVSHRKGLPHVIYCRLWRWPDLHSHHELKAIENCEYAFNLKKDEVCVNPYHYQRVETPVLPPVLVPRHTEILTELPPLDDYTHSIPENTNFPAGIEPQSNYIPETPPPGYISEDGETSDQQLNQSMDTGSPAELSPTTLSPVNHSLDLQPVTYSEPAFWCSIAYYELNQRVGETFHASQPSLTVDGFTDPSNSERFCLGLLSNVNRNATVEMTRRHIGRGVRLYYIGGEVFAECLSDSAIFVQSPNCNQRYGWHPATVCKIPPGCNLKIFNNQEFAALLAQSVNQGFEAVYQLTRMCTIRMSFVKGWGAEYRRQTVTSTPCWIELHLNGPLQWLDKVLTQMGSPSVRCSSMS

inhibition [1]: Dose-Dependent Effect
inhibition [3]: Dose-Dependent Effect
CLint scaled at 100 µM [4]: < 8.6 mL/min/kg
remaining at 1 h, 100 µM [10]: 77.4%
half-life at 100 µM [11]: > 2.42 h
half-life at 2 µM [12]: > 4.82 h
IC50 (Histone deacetylase 11): > 50 µM
IC50 (Histone deacetylase 2): 3.14 µM
Compound: CC(=O)O.O=C(NO)c1ccc(CN2C(=O)[C@@H]3CCCN3Cc3ccccc32)cc1
inhibition (Mus musculus [2]): Active
Activity (Mus musculus [5]): Active
Activity (Mus musculus [6]): Active
Activity (Mus musculus [7]): Active
Activity [8]: Toxic
Activity (Mus musculus [9]): Active
Activity (HELF): Dose-Dependent Effect
Activity (Mus musculus [13]): inactive
inhibition (Mus musculus [14]): Dose-Dependent Effect
Activity (Mus musculus [15]): Active
Activity (Mus musculus [16]): inactive
Activity (Mus musculus [17]): inactive
Activity (Mus musculus [18]): Active
